Assay results published in patent US12458605B2, “Lipid nanoparticle” (National University Corporation Hokkaido University, priority 2020, dated 2025).

What was measured:
spleen = assay: In vivo Fluc activity of FlucmRNA-loaded LNP by in vivo imaging, spleen; settings: Balb/c mice, 6 hours; for Fluc activity in the spleen, compared with CL4F6 / Fluc activity in the spleen, compared with CL15F6: 0.1 mg mRNA/kg; for Fluc activity in the spleen, compared with CL4F6: versus LNP comprising CL4F6 (Tables 5 and 6); for Fluc Activity in spleen: FlucmRNA-loaded LNP i.v. 0.1 mg mRNA/kg; for Fluc activity in the spleen, compared with CL15F6: versus LNP comprising CL15F6 (Table 7)
In short: (§1)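 Female Balb/c mice, 7 weeks old, received LNP i.v. at 0.1 mg mRNA/kg. At 6 h, luciferin was given via tail vein at 1.5 mg per mouse, and liver and spleen luminescence was imaged as Avg Radiance [p/s/cm2/sr] near 560 nm.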

liver = assay: In vivo Fluc activity of FlucmRNA-loaded LNP by in vivo imaging, liver; settings: Balb/c mice, 6 hours; for Fluc Activity in liver: FlucmRNA-loaded LNP i.v. 0.1 mg mRNA/kg
In short: as §1

[1] = siRNA/mRNA encapsulation rate by Ribogreen reagent (section IV); format: physicochemical; settings: for % siRNA encapsulation: F7siRNA-loaded LNP, 50:10:38.5:1.5, N/P ratio 6; for % mRNA encapsulation: FlucmRNA-loaded LNP, 50:10:38.5:1.5
In short: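 LNPs diluted in TE buffer to 8 μg/mL nucleic acid for surface RNA, or to 1.2 μg/mL with 1% Triton X-100 for total RNA. RiboGreen fluorescence (ex 485/em 528 nm) quantified against a Triton-containing standard curve (0-2.5 μg/mL). Encapsulation % = (total − surface)/total × 100.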

[2] = Average particle size (ζ-Average) and PDI by dynamic light scattering (Zetasizer Nano ZSP); format: physicochemical
In short: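 Lipid nanoparticles dispersed in PBS(−) were sized by dynamic light scattering, giving the ζ-Average diameter and polydispersity index (PDI).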

F7 = assay: In vivo F7 knockdown, plasma F7 enzyme activity (BIOPHEN FVII), Balb/c mice; settings: for F7 enzyme activity (Ratio using MC3 as 1) / F7 enzyme activity (%): i.v. 0.025 mg siRNA/kg, plasma at 24 hours; for F7 enzyme activity (Ratio using MC3 as 1): relative plasma F7 activity of MC3 LNP as 1; for F7 enzyme activity (%): untreated mice as 100%
In short: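 Female Balb/c mice, 5 weeks old, received F7 siRNA lipid nanoparticles i.v. at 0.025 mg siRNA/kg; plasma F7 activity measured chromogenically (BIOPHEN FVII) 24 h later. Values are % of untreated mice, also expressed as a ratio to MC3-containing nanoparticles set at 1.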

[3] = Storage stability of FlucmRNA-loaded LNP at −80, 5, 25 and 40° C.; format: physicochemical; settings: for period for which quality remained good, −80° C.: maximum storage period 1 week; for quality at production (storage stability criteria): criteria: PDI 0.2 or less, encapsulation 80% or more
In short: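 FlucmRNA-loaded LNPs held at −80, 5, 25 or 40° C; at each time point size, PDI and encapsulation measured. Quality deemed maintained while size stays within ±20 nm of preparation day, PDI ≤0.2 and encapsulation ≥80%; value is the period meeting all three.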

[4] = F7siRNA-loaded LNP, 50:10:38.5:1.5, N/P ratio 6
[5] = FlucmRNA-loaded LNP, 50:10:38.5:1.5
[6] = FlucmRNA-loaded LNP, lipid:DSPC:cholesterol:DMG-PEG2K 50:10:38.5:1.5

Row | % siRNA encapsulation [1] | % mRNA encapsulation [1] | PDI [2, 4] | ζ-Average (nm) [2, 4] | PDI [2, 5] | ζ-Average (nm) [2, 6] | period for which quality remained good, −80° C. [3] | period for which quality remained good, 5° C. ([3]; maximum storage period 5 weeks) | period for which quality remained good, 25° C. ([3]; maximum storage period 5 weeks) | period for which quality remained good, 40° C. (weeks) ([3]; maximum storage period 5 weeks) | SMILES | Fluc Activity in spleen (spleen) | Fluc Activity in liver (liver) | F7 enzyme activity (Ratio using MC3 as 1) (F7) | F7 enzyme activity (%) (F7) | Fluc activity in the spleen, compared with CL15F6 (spleen) | further results
1 | 99.9% | 99.0% | 0.032 | 99.72 nm | 0.048 | 89.41 nm | 1 week | 5 weeks | 5 weeks | 5 weeks | CCCCCCCC(CCCCC)C(=O)OCCCCCCC(O)(CCCCCCOC(=O)C(CCCCC)CCCCCCC)CCCCN(CCC)CCC (stereo not drawn) [CL4F 9-5] | 9.53E+06 Avg Radiance [p/s/cm2/sr] | 6.84E+07 Avg Radiance [p/s/cm2/sr] | 0.43 |  |  | Fluc activity in the spleen, compared with CL4F6 (spleen): higher Fluc activity; knockdown activity, compared with MC3 (F7; F7siRNA-loaded LNP, versus LNP comprising MC3): higher knockdown activity
2 | 99.9% | 99.8% | 0.007 | 91.44 nm | 0.021 | 81.99 nm | 1 week | 5 weeks | 5 weeks | 5 weeks | CCCCCCCCC(CCCCCCCC)C(=O)OCCCCCCC(O)(CCCCCCOC(=O)C(CCCCCCCC)CCCCCCCC)CCCCN(CCC)CCC [CL4F 10-8] | 8.04E+05 Avg Radiance [p/s/cm2/sr] | 5.14E+07 Avg Radiance [p/s/cm2/sr] |  | 8.1% |  | 
3 | 99.9% | 99.8% | 0.034 | 92.98 nm | 0.020 | 84.50 nm | 1 week | 5 weeks | 5 weeks | 5 weeks | CCCCCCCCCC(CCCCCC)C(=O)OCCCCCCC(O)(CCCCCCOC(=O)C(CCCCCC)CCCCCCCCC)CCCCN(CCC)CCC (stereo not drawn) [CL4F 11-6] | 2.54E+06 Avg Radiance [p/s/cm2/sr] | 1.38E+08 Avg Radiance [p/s/cm2/sr] |  | 6% |  | Fluc activity in the liver, compared with CL4F6 (liver; 0.1 mg mRNA/kg, versus LNP comprising CL4F6 (Tables 5 and 6)): higher Fluc activity
4 | 100.1% | 99.0% | 0.011 | 94.55 nm | 0.015 | 84.57 nm | 1 week | 5 weeks | 5 weeks | 1 week weeks | CCCCCCCCCCC(CCCC)C(=O)OCCCCCCC(O)(CCCCCCOC(=O)C(CCCC)CCCCCCCCCC)CCCCN(CCC)CCC (stereo not drawn) [CL4F 12-4] | 3.19E+06 Avg Radiance [p/s/cm2/sr] | 7.70E+07 Avg Radiance [p/s/cm2/sr] |  | 5% |  | Fluc activity in the spleen, compared with CL4F6 (spleen): higher Fluc activity

The next lines start with the compound.

Row | SMILES | % siRNA encapsulation [1] | % mRNA encapsulation [1] | PDI [2, 4] | ζ-Average (nm) [2, 4] | PDI [2, 5] | ζ-Average (nm) [2, 6] | period for which quality remained good, −80° C. [3] | period for which quality remained good, 5° C. ([3]; maximum storage period 5 weeks) | period for which quality remained good, 25° C. ([3]; maximum storage period 5 weeks) | period for which quality remained good, 40° C. (weeks) ([3]; maximum storage period 5 weeks) | Fluc Activity in spleen (spleen) | Fluc Activity in liver (liver) | F7 enzyme activity (Ratio using MC3 as 1) (F7) | F7 enzyme activity (%) (F7) | Fluc activity in the spleen, compared with CL15F6 (spleen) | further results
5 | CCCCCCCCCC(CCCCCCCCC)C(=O)OCCCCCCC(O)(CCCCCCOC(=O)C(CCCCCCCCC)CCCCCCCCC)CCCCN(CCC)CCC [CL4F 11-9] | 100.1% | 99.8% | 0.009 | 90.93 nm | 0.014 | 81.13 nm | 1 week | 5 weeks | 5 weeks | 5 weeks | 1.19E+06 Avg Radiance [p/s/cm2/sr] | 6.86E+07 Avg Radiance [p/s/cm2/sr] |  | 47.7% |  | 
6 | CCCCCCCCCCCCC(CC)C(=O)OCCCCCCC(O)(CCCCCCOC(=O)C(CC)CCCCCCCCCCCC)CCCCN(CCC)CCC (stereo not drawn) [CL4F 14-2] | 98.0% | 94.0% | 0.076 | 80.87 nm | 0.078 | 74.02 nm | 0 week | 0 week weeks | 0 week weeks |  | 3.66E+06 Avg Radiance [p/s/cm2/sr] | 4.08E+07 Avg Radiance [p/s/cm2/sr] |  | 7.9% |  | Fluc activity in the spleen, compared with CL4F6 (spleen): higher Fluc activity; period for which quality remained good, 40° C. (days) ([3]; maximum storage period 5 weeks): 0 day days
7 | CCCCCCCCCCCCCCC(C)C(=O)OCCCCCCC(O)(CCCCCCOC(=O)C(C)CCCCCCCCCCCCCC)CCCCN(CCC)CCC (stereo not drawn) [CL4F 16-1] | 94.9% | 65.9% | 0.092 | 64.81 nm | 0.045 | 69.08 nm |  |  |  |  | 1.93E+06 Avg Radiance [p/s/cm2/sr] | 8.52E+06 Avg Radiance [p/s/cm2/sr] |  | 103.6% |  | quality at production (storage stability criteria) [3]: Does not meet the criteria for “good” at production
8 | CCCCCC(CCC)C(=O)OCCCCCCC(O)(CCCCCCOC(=O)C(CCC)CCCCC)CCCCOC(=O)C1CCN(C)CC1 (stereo not drawn) [CL15F 7-3] | 95.7% | 64.2% | 0.398 | 287.9 nm | 0.369 | 370.30 nm |  |  |  |  | 1.48E+07 Avg Radiance [p/s/cm2/sr] | 5.34E+06 Avg Radiance [p/s/cm2/sr] | 2.08 |  | higher Fluc activity | quality at production (storage stability criteria) [3]: Does not meet the criteria for “good” at production
9 | CCCCCCCCCCCCC(CC)C(=O)OCCCCCCC(O)(CCCCCCOC(=O)C(CC)CCCCCCCCCCCC)CCCCOC(=O)C1CCN(C)CC1 (stereo not drawn) [CL15F 14-2] | 100.2% | 95.70% | 0.13 | 143.9 nm | 0.117 | 158.90 nm | 1 week | 5 weeks | 5 weeks | 5 weeks | 7.58E+06 Avg Radiance [p/s/cm2/sr] | 1.03E+07 Avg Radiance [p/s/cm2/sr] | 1.82 |  | higher Fluc activity | Fluc activity in the liver, compared with CL15F6 (liver; 0.1 mg mRNA/kg, versus LNP comprising CL15F6 (Table 7)): higher Fluc activity
10 | CCCCCCCCC(CCCCC)C(=O)OCCCCCCC(O)(CCCCCCOC(=O)C(CCCCC)CCCCCCCC)CCCCOC(=O)C1CCN(C)CC1 (stereo not drawn) [CL15F 10-5] | 100.5% | 99.4% | 0.003 | 111.7 nm | 0.047 | 113.90 nm | 1 week | 5 weeks | 5 weeks | 5 weeks | 7.55E+06 Avg Radiance [p/s/cm2/sr] | 2.70E+06 Avg Radiance [p/s/cm2/sr] | 1.33 |  | higher Fluc activity | 
11 | CCCCCCCC(CCC)C(=O)OCCCCCCC(O)(CCCCCCOC(=O)C(CCC)CCCCCCC)CCCCOC(=O)C1CCN(C)CC1 (stereo not drawn) [CL15F 9-3] | 98.3% | 95.5% | 0.172 | 200.4 nm | 0.044 | 196.80 nm | 0 week | 5 weeks | 5 weeks | 5 weeks | 7.47E+06 Avg Radiance [p/s/cm2/sr] | 1.16E+06 Avg Radiance [p/s/cm2/sr] | 1.50 |  | higher Fluc activity | 
